# In US20240174634A1, “Aldehyde Dehydrogenase Inhibitors and Their Therapeutic Use” (priority 2020, published 2024):
# Target: T1, ALDH1A3 (Homo sapiens, UniProt P47895)
# T1 sequence (P47895 1-512): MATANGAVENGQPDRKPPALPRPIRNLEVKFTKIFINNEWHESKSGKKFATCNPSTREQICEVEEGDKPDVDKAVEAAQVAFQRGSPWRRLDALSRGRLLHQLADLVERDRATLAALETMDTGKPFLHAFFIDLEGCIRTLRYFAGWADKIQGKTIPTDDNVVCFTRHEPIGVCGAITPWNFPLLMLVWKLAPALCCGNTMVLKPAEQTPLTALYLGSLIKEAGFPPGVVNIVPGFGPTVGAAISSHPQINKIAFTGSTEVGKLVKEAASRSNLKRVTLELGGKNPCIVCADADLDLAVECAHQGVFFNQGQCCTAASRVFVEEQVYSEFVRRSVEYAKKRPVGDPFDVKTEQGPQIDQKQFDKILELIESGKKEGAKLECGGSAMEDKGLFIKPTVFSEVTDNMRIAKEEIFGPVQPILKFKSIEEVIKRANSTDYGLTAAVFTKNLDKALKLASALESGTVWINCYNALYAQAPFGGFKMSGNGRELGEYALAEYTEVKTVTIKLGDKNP
# Assay: Primary biochemical assay, NAD(P)H-Glo Detection System
# Design: His-tag; made in house; host or cells: E. coli Rosetta (DE3)
# Details: 30 min pre-incubation, propionaldehyde and NAD at Km
# From the text: Cloning: Open reading frames corresponding to the protein coding sequences of full length human ALDH1A1 (Uniprot ID P00352), ALDH1A2 (094788) and ALDH1A3 (P47895) were polymerase chain reaction (PCR) amplified from human cDNA and inserted into the multi-cloning sites of the commercially available (Novagen) E. coli expression vectors pET47b (ALDH1A1, EcoRI restriction site; ALDH1A2, BamHI and EcoRI sites) or pET28a (ALDH1A3, NdeI and BamHI sites), using standard molecular genetic techniques. Recombinant DNA products were sequence verified prior to use in expression studies.
# Expression: Expression constructs were transformed into the E. coli strain Rosetta (DE3) (Merck) and individual colonies used to inoculate 10 mL lysogen broth (LB) medium supplemented with kanamycin and chloramphenicol at 50 μg/mL and 34 μg/mL, respectively. Cultures were grown to saturation overnight at 37° C., prior to being used to sub-inoculate fresh 1 L LB medium cultures (plus antibiotics, as before). 1 L cultures were grown at 37° C., 200 rpm, throughout the day until the optical density at 600 nm (OD600) reached ˜0.8, at which point growth temperature was reduced to 18° C. and 1 mM isopropyl β-d-1-thiogalacto pyranoside (IPTG) added to induce protein expression.
# Cultures were left overnight (at least 16 h) under these conditions and the following day harvested by centrifugation (4000 G, 10 minutes). Culture supernatant was discarded and cell pellets stored at −80° C. until further processing.
# Purification: Cell pellets were thawed on ice, re-suspended in Ni Affinity Buffer A (20 mM HEPES pH 7.5, 300 mM NaCl, 20 mM imidazole, 1 mM tris(2-carboxyethyl)phosphine (TCEP)) with protease inhibitors (cOmplete Ultra protease inhibitor, Roche), and lysed by sonication. Lysates were clarified by centrifugation at 18,000 G, 4° C., for 40 minutes, and loaded directly onto a pre-equilibrated (Buffer A) 5 mL HisTrap Fast Flow column (GE Healthcare) by way of an AKTA Fast Protein Liquid Chromatography (FPLC) system. The column was sequentially treated with 6 column volumes (CV) 100% Buffer A, 8 CV of 90% Buffer A:10% Buffer B (20 mM 4-(2-hydroxyethyl)-1-piperazineethanesulfonic acid (HEPES) pH 7.5, 300 mM NaCl, 500 mM imidazole, 1 mM TCEP) and finally a linear gradient from 10-70% Buffer B over 8 CV to elute recombinant His-tagged protein. Relevant fractions (as measured by 280 nm absorbance) collected during elution were pooled and subjected to further purification by size exclusion chromatography (Superdex 200 26/600, GE Healthcare, running buffer 20 mM 2-(carbamoylmethylamino)ethanesulfonic acid (ACES) pH 7.5, 1 mM TCEP). Relevant fractions from this step were pooled, aliquoted, and stored at −80° C. until required for compound profiling assays.
# Materials: ALDH2 was purchased from Abnova. Tris(hydroxymethyl)aminomethane (Tris) was purchased from MP Biomedicals. TCEP, ethylenediaminetetraacetic acid (EDTA), propionaldehyde, DMSO and Tween-20 were purchased from Sigma. Nicotinamide adenine dinucleotide (NAD) was obtained from Abcam. The NAD(P)H-Glo™ Detection System was purchased from Promega. White, non-binding surface, 384 well plates were supplied by Corning (#3574).
# Method: Inhibition of ALDH1A3 was assessed using the NAD(P)H-Glo™ Detection System (Cat. No. G9062) from Promega. This assay detects the production of NADH from NAD by ALDH1A3 via the coupled enzymatic conversion of a proluciferin reductase substrate to generate a luminescent signal. Inhibition of ALDH1A3 by small molecule inhibitors will result in reduction or abrogation of luminescence signal increase above background. Inhibition of ALDH1A1, ALDH1A2 and ALDH2 (selectivity assays) were assessed using the same assay.
# Compounds were dosed into Corning 384 well assay plates using an Echo acoustic dispenser to give 10 point curves in a 3-fold dilution series. Compounds were dispensed from a 20 mM DMSO stock and initially screened at a top concentration of 20 μM (ALDH1A3) or 250 μM (ALDH1A1, ALDH1A2 & ALDH2). […]
row,SMILES,IC50 [nM]
1,"O=C1CCc2cc(OCCN3CCCC3c3ccsc3)ccc2N1 (stereo not shown) [ALDHI-2014, 6-[2-[2-(3-thienyl)pyrrolidin-1-yl]ethoxy]-3,4-dihydro-1H-quinolin-2-one]",< 100
2,"CC1Cc2cc(OCCN3CCCC3c3cccc(F)c3)ccc2NC1=O (stereo not shown) [ALDHI-2048, 6-[2-[2-(3-fluorophenyl)pyrrolidin-1-yl]ethoxy]-3-methyl-3,4-dihydro-1H-quinolin-2-one]",< 100
3,"O=C1CCc2cc(NC(=O)c3scnc3-c3ccccc3Cl)ccc2N1 [ALDHI-1012, 4-(2-chlorophenyl)-N-(2-oxo-3,4-dihydro-1H-quinolin-6-yl)thiazole-5-carboxamide]",1000 to 10000
4,"O=C1CCc2cc(OCCN3CCCC3c3cccs3)ccc2N1 (stereo not shown) [ALDHI-2013, 6-[2-[2-(2-thienyl)pyrrolidin-1-yl]ethoxy]-3,4-dihydro-1H-quinolin-2-one]",< 100
5,"CC1CN(CCOc2ccc3c(c2)CCC(=O)N3)C(c2ccccc2)CO1 (mixture of isomers) [ALDHI-2042, 6-[2-(2-methyl-5-phenyl-morpholin-4-yl)ethoxy]-3,4-dihydro-1H-quinolin-2-one]",100 to 1000
6,"O=C1CCc2cc(OCCN3CC(O)CC3c3cccc(F)c3)ccc2N1 (mixture of isomers) [ALDHI-2035, 6-[2-[2-(3-fluorophenyl)-4-hydroxy-pyrrolidin-1-yl]ethoxy]-3,4-dihydro-1H-quinolin-2-one]",< 100
7,"Cn1cc(C2CCCN2CCOc2ccc3c(c2)SCC(=O)N3)cn1 (stereo not shown) [ALDHI-2026, 7-[2-[2-(1-methylpyrazol-4-yl)pyrrolidin-1-yl]ethoxy]-4H-1,4-benzothiazin-3-one]",100 to 1000
8,"O=C1CCc2cc(OCCN3CCC3c3cccc(F)c3)ccc2N1 (stereo not shown) [ALDHI-2021, 6-[2-[2-(3-fluorophenyl)azetidin-1-yl]ethoxy]-3,4-dihydro-1H-quinolin-2-one]",100 to 1000
9,"O=C1CCc2cc(OCCN3CCCC3c3cccnc3)ccc2N1 (stereo not shown) [ALDHI-2005, 6-[2-[2-(3-pyridyl)pyrrolidin-1-yl]ethoxy]-3,4-dihydro-1H-quinolin-2-one]",< 100
10,"O=C1CCc2cc(OCCN3CCC[C@H]3c3cccc(F)c3)ccc2N1 [ALDHI-2018, 6-[2-[(2S)-2-(3-fluorophenyl)pyrrolidin-1-yl]ethoxy]-3,4-dihydro-1H-quinolin-2-one]",< 100
11,"C[C@@H](c1ccccc1)N(CCO)CCOc1ccc2c(c1)CCC(=O)N2 [ALDHI-3007, 6-[2-[2-hydroxyethyl-[(1S)-1-phenylethyl]amino]ethoxy]-3,4-dihydro-1H-quinolin-2-one]",100 to 1000
12,"O=C1COc2cc(OCCN3CCCC3c3cccc(F)c3)ccc2N1 (stereo not shown) [ALDHI-2009, 7-[2-[2-(3-fluorophenyl)pyrrolidin-1-yl]ethoxy]-4H-1,4-benzoxazin-3-one]",100 to 1000
13,"CC1(c2cccc(F)c2)CCCN1CCOc1ccc2c(c1)CCC(=O)N2 (stereo not shown) [ALDHI-2037, 6-[2-[2-(3-fluorophenyl)-2-methyl-pyrrolidin-1-yl]ethoxy]-3,4-dihydro-1H-quinolin-2-one]",< 100
14,"O=C1CSc2cc(OCCN3CCCC3c3cccc(F)c3)ccc2N1 (stereo not shown) [ALDHI-2008, 7-[2-[2-(3-fluorophenyl)pyrrolidin-1-yl]ethoxy]-4H-1,4-benzothiazin-3-one]",< 100
15,"O=C1CCc2cc(OCCN3CCCC3c3ccc(F)cc3)ccc2N1 (stereo not shown) [ALDHI-2003, 6-[2-[2-(4-fluorophenyl)pyrrolidin-1-yl]ethoxy]-3,4-dihydro-1H-quinolin-2-one]",< 100
16,"O=C1CCc2cc(OCCN3CCCC3c3cccc(F)c3)ccc2N1 (stereo not shown) [ALDHI-2001, 6-[2-[2-(3-fluorophenyl)pyrrolidin-1-yl]ethoxy]-3,4-dihydro-1H-quinolin-2-one]",< 100
17,"O=C1CCc2cc(NC(=O)c3ccccc3-c3cccc(F)c3)ccc2N1 [ALDHI-1007, 3′-fluoro-N-(2-oxo-1,2,3,4-tetrahydroquinolin-6-yl)-[1,1′-biphenyl]-2-carboxamide]",1000 to 10000
18,"O=C1CCCc2cc(OCCN3CCCC3c3cccc(F)c3)ccc2N1 (stereo not shown) [ALDHI-2020, 7-[2-[2-(3-fluorophenyl)pyrrolidin-1-yl]ethoxy]-1,3,4,5-tetrahydro-1-benzazepin-2-one]",< 100
19,"Cc1ccc(C2CCCN2CCOc2ccc3c(c2)CCC(=O)N3)cn1 (stereo not shown) [ALDHI-2030, 6-[2-[2-(6-methyl-3-pyridyl)pyrrolidin-1-yl]ethoxy]-3,4-dihydro-1H-quinolin-2-one]",100 to 1000
20,"O=C1CCc2cc(NC(=O)c3scnc3-c3ccccc3F)ccc2N1 [ALDHI-1021, 4-(2-fluorophenyl)-N-(2-oxo-3,4-dihydro-1H-quinolin-6-yl)thiazole-5-carboxamide]",< 100
21,"CC1(c2ccccc2)COCCN1CCOc1ccc2c(c1)CCC(=O)N2 (stereo not shown) [ALDHI-2040, 6-[2-(3-methyl-3-phenyl-morpholin-4-yl)ethoxy]-3,4-dihydro-1H-quinolin-2-one]",100 to 1000
22,"O=C1CCc2cc(NC(=O)c3sc(N4CCNCC4)nc3-c3cccc(F)c3)ccc2N1 [ALDHI-1005, 4-(3-fluorophenyl)-N-(2-oxo-3,4-dihydro-1H-quinolin-6-yl)-2-piperazin-1-yl-thiazole-5-carboxamide]",< 100
23,"O=C1CCc2cc(NC(=O)c3ncsc3-c3cccc(F)c3)ccc2N1 [ALDHI-1014, 5-(3-fluorophenyl)-N-(2-oxo-3,4-dihydro-1H-quinolin-6-yl)thiazole-4-carboxamide]",100 to 1000
24,"O=C1CCc2cc(OCCN3CCCCC3c3cccc(F)c3)ccc2N1 (stereo not shown) [ALDHI-2038, 6-[2-[2-(3-fluorophenyl)-1-piperidyl]ethoxy]-3,4-dihydro-1H-quinolin-2-one]",< 100
25,"O=C1CCc2cc(OCCN3CCC[C@@H]3c3cccc(F)c3)ccc2N1 [ALDHI-2007, 6-[2-[(2R)-2-(3-fluorophenyl)pyrrolidin-1-yl]ethoxy]-3,4-dihydro-1H-quinolin-2-one]",< 100
26,"CN(CCOc1ccc2c(c1)CCC(=O)N2)C(CO)c1cccc(F)c1 (stereo not shown) [ALDHI-3003, 6-[2-[[1-(3-fluorophenyl)-2-hydroxy-ethyl]-methyl-amino]ethoxy]-3,4-dihydro-1H-quinolin-2-one]",100 to 1000
27,"O=C1CCc2cc(OCCN3CCCC3c3ccc(F)c(F)c3)ccc2N1 (stereo not shown) [ALDHI-2039, 6-[2-[2-(3,4-difluorophenyl)pyrrolidin-1-yl]ethoxy]-3,4-dihydro-1H-quinolin-2-one]",< 100
28,"O=C1CCc2cc(OCCN3CCCC3c3ccccn3)ccc2N1 (stereo not shown) [ALDHI-2006, 6-[2-[2-(2-pyridyl)pyrrolidin-1-yl]ethoxy]-3,4-dihydro-1H-quinolin-2-one]",100 to 1000
